Reference: patent US20240050449A1, “Use of Acetyltanshinone IIA in Preparation of Medicament for Treating Lung Cancer and Medicament for Treating Lung Cancer” (UNIVERSITY OF MACAU, priority 2022, published 2024)

Tests used:
[1] = target: T1, p70S6K (Homo sapiens, UniProt P23443); assay: Western blot, p70S6K protein levels in drug-resistant NSCLC cells; format: cell-based; settings: 48 h
T1 construct: endogenous in cells; host or cells: A549, H358, H1975, H1650 for the Western blots
Method: Cells were washed once with PBS and frozen in RIPA lysis buffer containing protease and phosphatase inhibitors (Sigma-Aldrich) for 30 min. After sonication and centrifugation, the total protein concentration was determined by protein assay using Bio-Rad concentrated dye reagent (Bio-Rad). Equal amounts of protein ([…]) from each sample were separated by SDS-PAGE and electrotransferred to nitrocellulose membranes (GE Healthcare). Detection was performed on the membrane with a 1:1000 dilution of specific primary antibody followed by incubation with a 1:2000 dilution of the HRP conjugated secondary antibody. Finally, immunoreactivity is detected with a chemiluminescent substrate (Clarity Western ECL substrate; Bio-Rad). EGFR (#4267S), MET (#8198S), p-Akt (#9271L), akt (#9272S), p-mTOR (#5536S), mTOR (#2983S), p-p70S6K (#9234S), p70S6K (#2708S), p-S6RP (#4857S), S6RP (#2217S), p-4E-BP1 (#9455S) antibodies. 4E-BP1 (#9644S), p53 (#2527S), p21 waf1/Cip1 (#2947S), survivin (#2808S), cyclin B1 (#12231S), cyclin D3 (#2936S) and GAPDH (#2118S) were purchased from Cell Signaling Technology. Aurora A (#ab13824) and PLK1 (#ab189139) antibodies were from Abcam.

[2] = tested on: H1975 cells; assay: MTT cell viability assay, H1975 cells; format: cell-based
Method: Cells were seeded at a density of 3×10^3 per well in 96-well plates, allowed to attach overnight, and treated with various concentrations of agent. After 72 h of treatment, 10 μL of MTT solution (5 mg/mL) was added to each well and cultured in the plate for 4 h. The crystallized formazan was dissolved in 100 μL of 10% (w/v) SDS and 0.01 mol/L HCl solution for 24 h, and then the value was read by spectrophotometry at 595 nm using a microplate reader.

[3] = tested on: H1650 cells; assay: Colony formation (cloning experiment), H1650 cells; format: cell-based; settings: 10 days
Method: Cells were seeded at a density of 1×10^3 per well in 6-well plates and cultured for 24 h. The cells were treated with medicament or DMSO for 10 days, after which the cells were washed once with 1×PBS, fixed with 4% paraformaldehyde for 20 min, and stained with 0.1% crystal violet for 15 min. The stained cells in each well were imaged and the number of colonies in each well was quantified using ImageJ software.

[4] = Body weight, deaths and toxicity in the xenograft study; settings: 25 mg/kg intraperitoneally every 3 days for 31 days
Method: Cell line xenograft experiments were performed in 6-week-old female nude mice, 4×10^6 A549 cells were mixed 1:1 with matrigel-basement membrane matrix (Corning) and injected subcutaneously into nude mice. Tumors were allowed to grow to around […] and mice were randomly selected to receive treatment with ATA (25 mg/kg) or Erlotinib (25 mg/kg) intraperitoneally every 3 days for 31 days. ATA was formulated with 25% ethanol, 60% PEG300 (Sigma-Aldrich), and 15% Tween 80 (Sigma-Aldrich). Erlotinib was formulated in 5% DMSO, 30% PEG300, 5% Tween 80 and 60% H2O. Mouse body weight and tumor volume were measured every 3 days by a scale and caliper. Tumor volume (mm^3) was calculated using the formula. π/6×length (mm)×[width (mm)]^2. At least 6 mice in the control and treatment groups were evaluated during the study. All mice were sacrificed after 31 days of drug treatment, tumors were collected, and tumor weights were recorded. All animal studies were conducted in accordance with the requirements of the Animal Research Ethics Committee of Macao University and in compliance with all relevant ethical requirements.
To determine if ATA could also produce the same effect in vivo, this example injected A549 cells subcutaneously into nude mice to form tumor xenografts. Mice were randomly assigned to three groups. When the size of each tumor increased to a volume of approximately 100 mm^3, mice were injected intraperitoneally with vehicle control, ATA (25 mg/kg), or Erlotinib (25 mg/kg) every 3 days for 31 days. The tumor size and body weight of each mouse were measured every 3 days until the end of the animal experiment on day 31.

T1 sequence (P23443 whole entry): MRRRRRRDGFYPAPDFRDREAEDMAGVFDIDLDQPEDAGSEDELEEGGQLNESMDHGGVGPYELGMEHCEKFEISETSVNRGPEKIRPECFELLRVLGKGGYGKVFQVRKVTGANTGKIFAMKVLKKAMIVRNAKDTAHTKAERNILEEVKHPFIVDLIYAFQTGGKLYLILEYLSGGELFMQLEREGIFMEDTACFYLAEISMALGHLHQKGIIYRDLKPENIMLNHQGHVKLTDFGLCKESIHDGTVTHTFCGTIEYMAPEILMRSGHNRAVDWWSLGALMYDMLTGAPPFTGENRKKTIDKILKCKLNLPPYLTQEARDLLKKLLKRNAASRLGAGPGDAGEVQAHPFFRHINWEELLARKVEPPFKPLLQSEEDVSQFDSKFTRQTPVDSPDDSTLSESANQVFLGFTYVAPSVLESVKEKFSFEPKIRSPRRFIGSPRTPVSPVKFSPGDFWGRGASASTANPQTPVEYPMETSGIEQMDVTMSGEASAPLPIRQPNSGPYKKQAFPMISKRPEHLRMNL

CC(=O)Oc1c(OC(C)=O)c2c(C)coc2c2ccc3c(c12)CCCC3(C)C [ATA, acetyltanshinone IIA]
levels of p70S6K protein and its phosphorylated forms ([1]; A549, H358, H1975, H1650 cells, 1 or 2 μM): greatly reduced
levels of p70S6K ([1]; A549 and H1650 cells, 2 μM): significantly decreased
IC50 ratio of Erlotinib/ATA [2]: 6
IC50 ([2]; MTT, 72 h): 1.76 ± 0.02 µM
reduction of colony-forming capacity ([3]; 0.125 μM): 73%
colony formation inhibition compared with Afatinib ([3]; 1 μM): significantly higher colony formation inhibition than Afatinib
deaths during the treatment period [4]: no mice died
toxicity in nude mice [4]: no significant toxicity
weight of nude mice compared between groups [4]: no difference
